Measured values taken from PubChem BioAssay AID2060487 (Molecular Pharmacology Branch, DTP, NCI, 2025).

System: 997537-175-T-J1-PDC complex spheroid viability
Experiment: Anticancer human tumor 997537-175-T-J1-PDC patient-derived colon adenocarcinoma cell line growth inhibition [GQUAD]
Conditions: for IC50: curve of first compound; for viability, T/C: stronger effect = lower value
Text: DNA G-quadruplex Stabilizer Agents in Combinations in Complex Spheroids
A high-throughput screen of multi-cell type tumor spheroids was designed to identify active combinations of DNA G-quadruplex stabilizer agents and targeted small molecules. Complex spheroids include a stromal component modeled by human endothelial cells (HUVEC) and fibroblasts modeled by human mesenchymal stem cells (MSCs). The concentration ranges selected for each drug and investigational agent were based upon clinically achievable concentrations if the clinical Cmax of the agent was known.
Compounds. The drugs and investigational agents: pidnarulex (CX-5461; NSC782164), APTO-253 (NSC789042), BRACO-19 (NSC847499), peposertib (NSC802822), ceralasertib (NSC780249), elimusertib (NSC800525), camonsertib (NSC841442), AZD-1390 (NSC803789), olaparib (NSC753686), talazoparib (NSC767125), ART-558 (NSC835418), sotorasib (NSC818433), MRTX-1133 (NSC836407), SN-38 (NSC673596), topotecan (NSC609699), etoposide (NSC141540), doxorubicin (NSC123127), gemcitabine (NSC613327), 5-fluorouracil (NSC19893), paclitaxel (NSC125973), vemurafenib (NSC761431), panobinostat (NSC761190), R-306465 (JNJ-16241199; NSC773264), adavosertib (NSC754352), TP-3654 (NSC805149), carboplatin (NSC241240), KSQ-4279 (NSC840948), and staurosporine (NSC755774) were obtained from the National Cancer Institute (NCI) Developmental Therapeutics Program Chemical Repository (34). The FDA-approved anticancer drug set is available from the NCI Developmental Therapeutics Program. […] The stock solutions were prepared in dimethyl sulfoxide (DMSO, Sigma-Aldrich, St. Louis, MO, cat. D2650) at 800-fold the tested concentration and stored at -70 degrees C prior to their use. All drugs and investigational agents were tested over a range starting from a high concentration at or near the clinical Cmax and decreasing in half-log increments. If the clinical Cmax for an agent had not been determined, the highest concentration tested was 10 microM.
2.3 Cell Culture. All cells were maintained in an incubator at 37 degrees C and 5% CO2 with 95% humidity. The PDC lines were cultured according to standard operating procedures established by the NCI PDMR. All PDCs were thawed and cultured in Matrigel-coated flasks prepared with a working solution of 1X Ham's F-12 nutrient mix, without supplementation (Invitrogen, cat. 11765054), 100 U/mL penicillin-streptomycin (Invitrogen, cat. 15140122), and 2.5% Matrigel (Corning Inc., cat. 354248) for the first three passages. The 857933-349-R-J2-PDC line was cultured in 6C/Colon 1B media, which includes advanced DMEM/F-12 (Thermo Fisher Scientific, cat. 12634028), 10 mM HEPES (Thermo Fisher Scientific, cat. 15630080), 1X GlutaMAX supplement (Thermo Fisher Scientific, cat. 35050061), 0.1 mg/mL primocin (InvivoGen, cat. ant-pm-2), 10% defined fetal bovine serum, heat inactivated (HyClone Laboratories Inc., cat. SH30070.03HI), 50% L-WRN conditioned media (ATCC, cat. CRL-3276), 1.25 mM N-Acetyl-L-cysteine (Sigma-Aldrich, cat. A9165), 10 mM nicotinamide (Sigma-Aldrich, cat. N0636), 1X B-27 supplement (Thermo Fisher Scientific, cat. 17504044), 1X N-2 supplement (Thermo Fisher Scientific, cat. 17502048), 10 microM Y-27632 dihydrochloride (Tocris Bioscience, cat. 1254), and 50 ng/mL human EGF recombinant protein (Thermo Fisher Scientific, cat. PHG0311). The 485176-168-R4-J1-PDC line was cultured in Panc media, which includes all 6C/Colon 1B media components plus 100 ng/mL human FGF-10 (Thermo Fisher Scientific, cat. 100-26), 500 nM SB-431542 (Selleckchem, cat. S1067), and gastrin (Tocris, cat. 3006).
[…]

[1] = second compound 0.0316 µM, first compound 0.0316 µM
[2] = second compound 0.0316 µM, first compound 0.1 µM
[3] = second compound 0.0316 µM, first compound 0.316 µM
[4] = second compound 0.0316 µM, first compound 1 µM
[5] = second compound 0.0316 µM, first compound 3.16 µM
[6] = second compound 0.0316 µM, first compound 10 µM
[7] = second compound 0.1 µM, first compound 0.0316 µM
[8] = second compound 0.1 µM, first compound 0.1 µM
[9] = second compound 0.1 µM, first compound 0.316 µM
[10] = second compound 0.1 µM, first compound 1 µM
[11] = second compound 0.1 µM, first compound 3.16 µM
[12] = second compound 0.1 µM, first compound 10 µM
[13] = second compound 0.316 µM, first compound 0.0316 µM
[14] = second compound 0.316 µM, first compound 0.1 µM
[15] = second compound 0.316 µM, first compound 0.316 µM
[16] = second compound 0.316 µM, first compound 1 µM
[17] = second compound 0.316 µM, first compound 3.16 µM
[18] = second compound 0.316 µM, first compound 10 µM
[19] = second compound 1 µM, first compound 0.0316 µM
[20] = second compound 1 µM, first compound 0.1 µM
[21] = second compound 1 µM, first compound 0.316 µM
[22] = second compound 1 µM, first compound 1 µM
[23] = second compound 1 µM, first compound 3.16 µM
[24] = second compound 1 µM, first compound 10 µM
[25] = second compound 3.16 µM, first compound 0.0316 µM
[26] = second compound 3.16 µM, first compound 0.1 µM
[27] = second compound 3.16 µM, first compound 0.316 µM
[28] = second compound 3.16 µM, first compound 1 µM
[29] = second compound 3.16 µM, first compound 3.16 µM
[30] = second compound 3.16 µM, first compound 10 µM
[31] = second compound 10 µM, first compound 0.0316 µM
[32] = second compound 10 µM, first compound 0.1 µM
[33] = second compound 10 µM, first compound 0.316 µM
[34] = second compound 10 µM, first compound 1 µM
[35] = second compound 10 µM, first compound 3.16 µM
[36] = second compound 10 µM, first compound 10 µM
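Note: spheroids exposed to the agents for 7 days.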
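Throughout, for viability, T/C: 100% = DMSO vehicle control viability.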

`CC1COCCN1c1cc(-c2ccnn2C)c2ccnc(-c3ccn[nH]3)c2n1` (stereo unspecified) + CN(C)c1ccc(Nc2c3ccc(NC(=O)CCN4CCCC4)cc3nc3cc(NC(=O)CCN4CCCC4)ccc23)cc1 showed an IC50 (second compound 0.0316 µM) of 0.8 µM, an IC50 (second compound 0.1 µM) of 2.46 µM and an IC50 (second compound 0.316 µM) of over 10 µM. For the same compound, the IC50 (second compound 1 µM) was over 10 µM, the IC50 (second compound 3.16 µM) was over 10 µM and the IC50 (second compound 10 µM) was 0.264 µM. The viability, T/C [1] was 86.6%, the viability, T/C [2] was 78.5% and the viability, T/C [3] was 58.1%. For the same compound, the viability, T/C [4] was 43.9%, the viability, T/C [5] was 46.8% and the viability, T/C [6] was 30.1%. The viability, T/C [7] was 95.8%, the viability, T/C [8] was 81.9% and the viability, T/C [9] was 69.5%. For the same compound, the viability, T/C [10] was 56.6%, the viability, T/C [11] was 40.1% and the viability, T/C [12] was 52.9%. It also gave a viability, T/C [13] of 97.7%, a viability, T/C [14] of 69.4% and a viability, T/C [15] of 61.6%. For the same compound, the viability, T/C [16] was 35.5%, the viability, T/C [17] was 54.9% and the viability, T/C [18] was 59.8%. It also gave a viability, T/C [19] of 82.5%, a viability, T/C [20] of 59.7% and a viability, T/C [21] of 56.1%. It also gave a viability, T/C [22] of 34%, a viability, T/C [23] of 68.8% and a viability, T/C [24] of 51%. It also gave a viability, T/C [25] of 60.6%, a viability, T/C [26] of 70.3% and a viability, T/C [27] of 52.3%. The viability, T/C [28] was 44.1%, the viability, T/C [29] was 67.8% and the viability, T/C [30] was 60.6%. The viability, T/C [31] was 89.6%, the viability, T/C [32] was 68.8% and the viability, T/C [33] was 43.8%. The viability, T/C [34] was 32.6%, the viability, T/C [35] was 50% and the viability, T/C [36] was 59.5%.
Work on `CC1COCCN1c1cc(C2(S(C)(=N)=O)CC2)nc(-c2ccnc3[nH]ccc23)n1` (stereo unspecified) + CN(C)c1ccc(Nc2c3ccc(NC(=O)CCN4CCCC4)cc3nc3cc(NC(=O)CCN4CCCC4)ccc23)cc1 yielded an IC50 (second compound 0.0316 µM) of 8.42 µM, an IC50 (second compound 0.1 µM) of over 10 µM and an IC50 (second compound 0.316 µM) of over 10 µM. For the same compound, the IC50 (second compound 1 µM) was over 10 µM, the IC50 (second compound 3.16 µM) was over 10 µM and the IC50 (second compound 10 µM) was over 10 µM. For the same compound, the viability, T/C [1] was 93.6%, the viability, T/C [2] was 82.9% and the viability, T/C [3] was 74.4%. For the same compound, the viability, T/C [4] was 84.5%, the viability, T/C [5] was 56% and the viability, T/C [6] was 49%. It also gave a viability, T/C [7] of 82.3%, a viability, T/C [8] of 80% and a viability, T/C [9] of 75.1%. The viability, T/C [10] was 59.5%, the viability, T/C [11] was 48.6% and the viability, T/C [12] was 81.9%. It also gave a viability, T/C [13] of 98.7%, a viability, T/C [14] of 66.3% and a viability, T/C [15] of 79.2%. For the same compound, the viability, T/C [16] was 76%, the viability, T/C [17] was 65% and the viability, T/C [18] was 76%. The viability, T/C [19] was 90%, the viability, T/C [20] was 67.4% and the viability, T/C [21] was 87.8%. It also gave a viability, T/C [22] of 75.8%, a viability, T/C [23] of 70.9% and a viability, T/C [24] of 70.5%. For the same compound, the viability, T/C [25] was 70.2%, the viability, T/C [26] was 93% and the viability, T/C [27] was 86.7%. It also gave a viability, T/C [28] of 82.8%, a viability, T/C [29] of 73.4% and a viability, T/C [30] of 70.6%. For the same compound, the viability, T/C [31] was 77%, the viability, T/C [32] was 95.7% and the viability, T/C [33] was 94.5%. For the same compound, the viability, T/C [34] was 88.9%, the viability, T/C [35] was 55.5% and the viability, T/C [36] was 77%.
`COc1ccc([C@@H](O)c2cc(-c3ncnc4cc(N5CCOCC5)ccc34)c(F)cc2Cl)nn1` + CN(C)c1ccc(Nc2c3ccc(NC(=O)CCN4CCCC4)cc3nc3cc(NC(=O)CCN4CCCC4)ccc23)cc1 showed an IC50 (second compound 0.0316 µM) of over 10 µM, an IC50 (second compound 0.1 µM) of over 10 µM and an IC50 (second compound 0.316 µM) of over 10 µM. For the same compound, the IC50 (second compound 1 µM) was over 10 µM, the IC50 (second compound 3.16 µM) was over 10 µM and the IC50 (second compound 10 µM) was over 10 µM. It also gave a viability, T/C [1] of 90.2%, a viability, T/C [2] of 77.6% and a viability, T/C [3] of 102%. The viability, T/C [4] was 75%, the viability, T/C [5] was 72.4% and the viability, T/C [6] was 90%. For the same compound, the viability, T/C [7] was 97%, the viability, T/C [8] was 90.7% and the viability, T/C [9] was 78.9%. For the same compound, the viability, T/C [10] was 68.4%, the viability, T/C [11] was 78% and the viability, T/C [12] was 96.9%. The viability, T/C [13] was 85.9%, the viability, T/C [14] was 65.8% and the viability, T/C [15] was 90.1%. The viability, T/C [16] was 60.3%, the viability, T/C [17] was 81.9% and the viability, T/C [18] was 84.9%. The viability, T/C [19] was 77.8%, the viability, T/C [20] was 82.5% and the viability, T/C [21] was 86.6%. It also gave a viability, T/C [22] of 67.1%, a viability, T/C [23] of 100% and a viability, T/C [24] of 95.2%. The viability, T/C [25] was 84%, the viability, T/C [26] was 64.4% and the viability, T/C [27] was 93.8%. It also gave a viability, T/C [28] of 86.1%, a viability, T/C [29] of 108% and a viability, T/C [30] of 76.3%. The viability, T/C [31] was 82.9%, the viability, T/C [32] was 86.2% and the viability, T/C [33] was 93%. The viability, T/C [34] was 84.7%, the viability, T/C [35] was 95.2% and the viability, T/C [36] was 74.1%.
